Source: patent publication US6218384A, “3-Oxo-pyrido(1,2-a)benzimidazole-4-carboxyl and 4-oxo-azepino(1,2-a)benzimidazole-5-carboxyl derivatives useful in treating central nervous system disorders” (Ortho-McNeil Pharmaceutical, Inc., priority 1997, dated 2001)
pIC50: −log10 of the molar value. Read-outs that look alike come from different tables or passages of the source.

What was measured:
[1] = Screens in which the excluded compounds were tested (not specified); details: compounds excluded from formula I
[2] = Horizontal Screen Test for Determining Benzodiazepine Antagonism; assay type: in vivo, male CD1 mice; details: mice; for percent antagonism: given parenterally with chlordiazepoxide (28 mg/kg, sc), values above 0 considered active
Method: Some of the compounds of the invention were tested for their ability to antagonize the locomotor discoordinating property of chlordiazepoxide. Male CD1 mice, fasted for at least 16 hours but allowed access to water except during the period of observation, were placed on a horizontally-held screen (mesh size 1/4", wire diameter approximately 1.0 mm). The screen was inverted and mice which successfully climb to the top side of the screen within one minute were selected for testing. Selected mice were weighed and divided into equal groups. Test compounds or vehicle were administered to those mice parenterally at the same time as chlordrazepoxide (28 mg/kg, sc). At a pre-determined interval (or intervals) after administration, the animals were tested for their ability to climb to the top side of the inverted screen (pass the test). Activity is reported as the percent antagonism of the number of animals that fail the test in each treatment group relative to the corresponding chlordiazepoxide-treated group. Percent Antagonism =100×[(Percent Fail in Chlordiazepoxide Group)-(Percent Fail in Test Group)/Percent Fail in Chlordiazepoxide Group]. […] The percent antagonism values for the compounds of the present invention that were tested are as follows: CP 113=0, CP 53=0, CP 59=0,CP 102=0,[…],CP 7=17,CP 8=17,CP 9=30,CP 10=30, CP 11=92, CP 12=92, CP 13=100. Compounds having values above 0 were considered active as agents for treating drug overdoses, particularly overdoses of benzodiazepine.

[3] = Horizontal Screen Test for Motor Coordination; assay type: in vivo, male CD1 mice; details: Table 1, mice, parenteral, >300 = active dose not determined; for ED50: Mus musculus, read-out: Horiz. Screen ED50
Method: Some of the compounds of the invention were tested for their ability to act as general CNS agents and particularity as skeletal muscle relaxants and hypnotics/sedatives (Coughenour, L. L. et al. Pharm. Biochem. Behav. 1977, 6, 351). Male CD1 mice, fasted for at least 16 hours but allowed access to water except during the period of observation, were placed on a horizontally-held screen (mesh size 1/4", wire diameter approximately 1.0 mm). The screen was inverted and mice which successfully climb to the top side of the screen within one minute were selected for testing. Selected mice were weighed and divided into equal groups. Test compounds or vehicle were administered to those mice parenterally. At a pre-determined interval (or intervals) after administration, the animals were tested for their ability to climb to the top side of the inverted screen (pass the test). Activity is reported as the percent reduction in the number of animals that pass the test in each treatment group relative to the corresponding vehicle-treated group. Percent Reduction=100×([Percent Pass in Vehicle Group]-[Percent Pass in Test Group]/Percent Pass in Vehicle Group). Test compounds which produce a 50% or greater reduction in the number passing the test were considered active. ED50 values of the active compounds were calculated by the method of probits (Finney, D. J. 1971. Probit Analysis. London: Cambridge University Press) and are listed in Tables 1 to 5.

[4] = Suppression of metrazol-induced convulsions; assay type: in vivo, male CD1 mice; details: mice; for ED50: Mus musculus, 0.5 h; for Metrazol (ip) ED50: 30 min
[5] = biological target: benzodiazepine site of the GABA-A receptor; test: Benzodiazepine Receptor Binding Assay (inhibition of 3H-flunitrazepam binding); details: ca. 3 nM 3H-flunitrazepam
[6] = Suppression of anxiety (punished licking, conflict test) in the adult male rat; assay type: in vivo, male rats
Outline: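 Rats were deprived of water for 48 h and food for 24 h, with unpunished training the day before. Testing began at expected peak drug activity: 3-min session, every 20th lick punished by a 0.2-s shock.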

[7] = Table 1, ip, clonic convulsions after sc CD90 metrazol, >30 = active dose not determined, read-out: Metrazol (ip) ED50
[8] = Table 1, 25° C., 10-20 min, >10,000 = not active
[9] = Table 1, ip, minimum effective dose, >10 = active dose not determined, read-out: Conflict (ip) MED
[10] = Table 5, parenteral, clonic convulsions, read-out: Antimetrazol ED50
[11] = Table 5, minimum effective dose, read-out: Conflict MED
[12] = Table 1, ip, clonic convulsions after sc CD90 metrazol, >30 = active dose not determined
[13] = Table 1, ip, minimum effective dose, >10 = active dose not determined

O=C(Nc1ccccc1C(F)(F)F)C1=C(O)CCn2c1nc1ccccc12 [1,2-dihydro-3-hydroxy-N-(2-trifluoromethylphenyl)-pyrido(1,2-a)benzimidazole-4-carboxamide]
biological activity in the screens in which they have been tested [1]: none of these compounds has exhibited biological activity

CN(C)c1cc(F)ccc1NC(=O)C1=C(O)CCn2c1nc1ccccc12 [1,2-dihydro-N-(2-dimethylamino-4-fluorophenyl)-3-hydroxypyrido(1,2-a)benzimidazole-4-carboxamide]
biological activity in the screens in which they have been tested [1]: none of these compounds has exhibited biological activity

O=C(NC1CCCCC1)C1=C(O)CCn2c1nc1ccccc12 [CP 7, N-Cyclohexyl-1,2-dihydro-3-hydroxy-pyrido(1,2-a)benzimidazole-4-carboxamide]
percent antagonism [2]: 17%

COc1ccc(NC(=O)C2=C(O)CCn3c2nc2ccccc23)cc1OC [CP 8, 1,2-Dihydro-N-(3,4-dimethoxyphenyl)-3-hydroxy-pyrido(1,2-a)benzimidazole-4-carboxamide]
percent antagonism [2]: 17%

O=C1CCN2C(=C1C(=O)Nc1ccc([N+](=O)[O-])cc1)Nc1ccccc12 [CP 9]
percent antagonism [2]: 30%

O=C(Nc1ccc(O)cc1)C1=C(O)CCn2c1nc1ccccc12 [CP 10, 1,2-Dihydro-3-hydroxy-N-(4-hydroxyphenyl)pyrido(1,2-a)benzimidazole-4-carboxamide]
percent antagonism [2]: 30%

COc1ccc2c(c1)nc1n2CCC(O)=C1C(=O)Nc1ccccc1 [CP 12, 1,2-Dihydro-3-hydroxy-7-methoxy-N-(phenyl)pyrido(1,2-a)benzimidazole-4-carboxamide]
percent antagonism [2]: 92%

COc1ccc(NC(=O)C2=C(O)CCn3c2nc2cc(OC)ccc23)cc1 [CP 13, 1,2-Dihydro-3-hydroxy-7-methoxy-N-(4-methoxyphenyl)pyrido(1,2-a)benzimidazole-4-carboxamide]
percent antagonism [2]: 100%

O=C1CCN2C(=C1C(=O)Nc1ncncn1)Nc1ccccc12 [CP 53]
percent antagonism [2]: 0%

O=C(NCc1ccncc1)C1=C(O)CCn2c1nc1ccccc12 [CP 59, 1,2-Dihydro-3-hydroxy-N-(4-pyridylmethyl)pyrido(1,2-a)benzimidazole-4-carboxamide]
percent antagonism [2]: 0%

CNC(=O)C1=C(O)CCn2c1nc1ccccc12 [CP 102, 1,2-Dihydro-3-hydroxy-N-methyl-pyrido(1,2-a)benzimidazole-4-carboxamide]
percent antagonism [2]: 0%

O=C(Nc1ccccc1F)C1=C(O)CCn2c1nc1cc(Cl)ccc12 [CP 113, 7-Chloro-1,2-dihydro-3-hydroxy-N-(2-fluorophenyl)-pyrido(1,2-a)benzimidazole-4-carboxamide]
percent antagonism [2]: 0%

CNC1=Nc2ccc(Cl)cc2C(c2ccccc2)=[N+]([O-])C1 [chlordiazepoxide, reference compound]
impairment of the ability to pass the inverted screen test ([2]; chlordiazepoxide 28 mg/kg, sc): impairs the ability of all animals to pass this test

CCCCc1ccc(NC(=O)C2=C3Nc4ccccc4N3CCC2=O)cc1 [compound 17]
ED50 [3]: 300 mg/kg | ED50 [4, 7]: > 10 mg/kg | pIC50 [5, 8]: < 5.00

Cc1cccc(C)c1NC(=O)C1=C2Nc3ccccc3N2CCC1=O [compound 19]
ED50 [3]: 300 mg/kg | ED50 [4, 7]: > 30 mg/kg | pIC50 [5, 8]: 5.11 | minimal effective dose [6, 9]: > 10 mg/kg

O=C1CCN2C(=C1C(=O)Nn1cnnc1)Nc1ccccc12 [compound 42]
ED50 [3]: 300 mg/kg | ED50 [4, 7]: > 10 mg/kg | pIC50 [5, 8]: 5.57 | minimal effective dose [6, 9]: > 10 mg/kg

C[n+]1ccc(NC(=O)C2=C3Nc4ccccc4N3CCC2=O)cc1 [compound 56]
ED50 [3]: 100 mg/kg | ED50 [4, 7]: > 10 mg/kg | pIC50 [5, 8]: 5.20 | minimal effective dose [6, 9]: > 10 mg/kg

O=C1CCN2C(=C1C(=O)NC1CCNCC1)Nc1ccccc12 [compound 58]
ED50 [3]: 100 mg/kg | ED50 [4, 7]: > 10 mg/kg | pIC50 [5, 8]: < 5.00 | minimal effective dose [6, 9]: > 10 mg/kg

NC(=O)c1ccc(NC(=O)C2=C3Nc4ccccc4N3CCC2=O)cc1 [compound 90]
ED50 [3]: > 10 mg/kg | ED50 [4, 7]: > 10 mg/kg | pIC50 [5, 8]: 6.96 | minimal effective dose [6, 9]: > 10 mg/kg

O=C1CCN2C(=C1C(=O)Nc1cccc(F)c1)Nc1ccccc12 [compound 95]
ED50 [3]: > 10 mg/kg | ED50 [4, 7]: > 10 mg/kg | pIC50 [5, 8]: 6.80 | minimal effective dose [6, 9]: > 10 mg/kg

O=C1CCN2C(=C1C(=O)Nc1ccncc1F)Nc1ccccc12 [compound 97]
ED50 [3]: > 10 mg/kg | ED50 [4, 7]: 1 mg/kg | pIC50 [5, 8]: 7.28 | minimal effective dose [6, 9]: 10 mg/kg

CN(C)c1ccc(NC(=O)C2=C3N(C)c4ccccc4N3CCCC2=O)cc1 [compound 150]
ED50 [4, 10]: > 10 mg/kg | pIC50 ([5]; Table 5): 5.51 | minimal effective dose [6, 11]: > 10 mg/kg

CN(C)c1ccc(NC(=O)C2=C3N(CCCC2=O)c2ccccc2N3Cc2ccccc2)cc1 [compound 151]
ED50 [4, 10]: > 10 mg/kg | pIC50 ([5]; Table 5): 4.91 | minimal effective dose [6, 11]: > 10 mg/kg

O=C1CCCN2C(=C1C(=O)Nc1ccncc1)Nc1ccccc12 [compound 152]
ED50 [4, 10]: > 10 mg/kg | pIC50 ([5]; Table 5): 5.84 | minimal effective dose [6, 11]: < 10 mg/kg

CN1C2=C(C(=O)Nc3ccncc3)C(=O)CCCN2c2ccccc21 [compound 153]
ED50 [4, 10]: > 10 mg/kg | pIC50 ([5]; Table 5): 5.59 | minimal effective dose [6, 11]: > 10 mg/kg

O=C1CCCN2C(=C1C(=O)Nc1ccc(F)cc1F)Nc1ccccc12 [compound 155]
ED50 [4, 10]: 10 mg/kg | pIC50 ([5]; Table 5): 7.41 | minimal effective dose [6, 11]: > 10 mg/kg

O=C1CCCN2C(=C1C(=O)Nc1ccc(F)cc1F)N(Cc1ccccc1)c1ccccc12 [compound 156]
ED50 [4, 10]: > 10 mg/kg | pIC50 ([5]; Table 5): 6.48 | minimal effective dose [6, 11]: > 10 mg/kg

CN1C2=C(C(=O)Nc3c(F)cc(F)cc3F)C(=O)CCCN2c2ccccc21 [compound 157]
ED50 [4, 10]: > 10 mg/kg | pIC50 ([5]; Table 5): 7.28 | minimal effective dose [6, 11]: > 10 mg/kg

N-(2,4-Difluorophenyl)-4-oxo-1,2,3,4-tetrahydro-6H-azepino(1,2-a)benzimidazol-5-carboxamide [CP 155]
Metrazol (ip) ED50 [4, 12]: 10 to 30 mg/kg | pIC50 [5, 8]: 6.68 | Conflict (ip) MED [6, 13]: > 10 mg/kg

N-(2,6-Difluorophenyl)-3-hydroxypyrido(1,2-a)benzimidazole-4-carboxamide [CP 141]
Metrazol (ip) ED50 [4, 12]: 10 mg/kg | pIC50 [5, 8]: 6.85 | Conflict (ip) MED [6, 13]: 10 mg/kg

N-(2-Fluorophenyl)-3-hydroxypyrido(1,2-a)benzimidazol-4-carboxamide [CP 139]
Horiz. Screen ED50 [3]: 300 mg/kg | Metrazol (ip) ED50 [4, 12]: > 300 mg/kg | pIC50 [5, 8]: < 5.00 | Conflict (ip) MED [6, 13]: > 10 mg/kg

N-(2-Fluorophenyl)-6-methyl-4-oxo-1,2,3,4-tetrahydro-6H-azepino(1,2-a)benzimidazol-5-carboxamide [CP 147]
Metrazol (ip) ED50 [4, 12]: 5 mg/kg | pIC50 [5, 8]: 7.29 | Conflict (ip) MED [6, 13]: 10 mg/kg

N-(4-Pyridyl)-1,2-dihydro-3-hydroxypyrido-(1,2-a)benzimidazole-4-carboxamide [CP 35]
Metrazol (ip) ED50 [4, 12]: 3 mg/kg | pIC50 [5, 8]: 8.04 | Conflict (ip) MED [6, 13]: 10 mg/kg

Phenyl-1,2-dihydro-3-hydroxypyrido(1,2-a)benzimidazole-4-carboxthiolate [CP 119]
Metrazol (ip) ED50 [4, 12]: 30 mg/kg | pIC50 [5, 8]: 7.37 | Conflict (ip) MED [6, 13]: 10 mg/kg

Phenyl-1,2-dihydro-3-hydroxypyrido(1,2-a)benzimidazole-4-carboxylate [CP 118]
Metrazol (ip) ED50 [4, 12]: 3 mg/kg | pIC50 [5, 8]: 7.39 | Conflict (ip) MED [6, 13]: 10 mg/kg
